Columns and labels:
[1] = biological target: T1, human MCT1 (Homo sapiens, UniProt P53985); experiment: MCT1 Transport Inhibition Assay; type: cell-based; conditions: MDCK-II cells overexpressing human MCT1 (with CD147), TPGA transport, LC-MS/MS; read-out: BioIVT MCT1 Transporter IC50
T1 construct: host or cells: MDCK-II cells, transiently co-transfected
T1 sequence (P53985 1-500): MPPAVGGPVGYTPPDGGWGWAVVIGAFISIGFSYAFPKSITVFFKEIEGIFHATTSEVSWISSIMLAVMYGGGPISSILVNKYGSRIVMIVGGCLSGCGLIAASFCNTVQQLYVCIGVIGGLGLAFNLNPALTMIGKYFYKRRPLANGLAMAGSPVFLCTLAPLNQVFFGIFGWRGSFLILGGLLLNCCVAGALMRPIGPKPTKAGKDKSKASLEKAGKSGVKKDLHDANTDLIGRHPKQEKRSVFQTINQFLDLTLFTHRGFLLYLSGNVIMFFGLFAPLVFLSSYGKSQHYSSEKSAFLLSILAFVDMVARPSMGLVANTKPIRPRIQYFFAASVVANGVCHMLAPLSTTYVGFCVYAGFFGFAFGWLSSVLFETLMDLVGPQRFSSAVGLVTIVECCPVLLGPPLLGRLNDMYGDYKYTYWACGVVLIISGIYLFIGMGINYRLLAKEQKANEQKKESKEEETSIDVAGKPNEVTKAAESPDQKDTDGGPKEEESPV
T1 sequence (P35613 140-385 partner limits assumed): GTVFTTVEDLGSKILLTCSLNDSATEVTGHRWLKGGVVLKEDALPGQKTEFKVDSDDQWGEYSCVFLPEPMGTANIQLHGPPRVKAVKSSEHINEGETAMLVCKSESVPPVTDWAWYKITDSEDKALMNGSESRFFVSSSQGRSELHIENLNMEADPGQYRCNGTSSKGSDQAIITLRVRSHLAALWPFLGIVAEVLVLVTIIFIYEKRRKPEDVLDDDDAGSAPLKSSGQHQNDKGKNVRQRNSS
Method: Inhibition of MCT1 transport after treatment with compounds of the present invention was measured in MDCK-II cells that overexpress human MCT1 by quantifying the transport of 2-Thiophene-glycoxylic acid (TPGA) into cells using LC-MS/MS.
MDCK-II cells are seeded at 60,000 cells per well in growth medium (low-glucose DMEM+10% FBS) in 96-well trans-well membrane plates, and incubated overnight (37° C., 5% CO2). Cells were co-transfected with mammalian expression constructs coding for MCT1 and CD147 at a 2:1 ratio or an empty vector control (GFP) and then incubated for 48h (37° C., 5% CO2). Cells were washed 3 times with HBSS and cells were preincubated with inhibitors or vehicle control at room temperature in HBSS for 30 min with orbital shaking (60 rpm). HBSS was aspirated from the wells and replaced with HBSS with 25 mM Bis-Tris pH5.5+inhibitor or vehicle control+500 μM TPGA and incubated for 1 min at room temperature with orbital shaking (60 rpm). Both the apical and basolateral side of the trans-well insert were washed 4 times with ice-cold PBS. Cells were lysed with 60 μL of cell extraction solution, and the amount of TPGA in each well was quantified in triplicate by LC-MS/MS. The MCT1-mediated uptake rate was calculated using the following equation: […]
Percent inhibition for each concentration of inhibitor tested was calculated using the following equation: […]
Curves were fit to the calculated percent inhibition for each inhibitor, and the IC50 representing the concentration of inhibitor at which MCT1 is inhibited by 50% was calculated from this curve.

[2] = test system: Daudi (Burkitt Lymphoma) cells; experiment: Intracellular Lactate Accumulation Assay (Lactate-Glo); type: cell-based; conditions: Homo sapiens, 2h treatment, read-out: LactateGlo EC50
Method: Intracellular lactate accumulation after a 2h treatment with compounds of the present invention was measured in Daudi (Burkitt Lymphoma) cells using the Lactate-Glo Assay (Promega).
Daudi cells were seeded at 7,500 cells per well in 150 μL of growth medium (RPMI-1640 with 2 mM GlutaMAX+10% FBS) in clear, 96-well, flat-bottom microplates, and incubated overnight (37° C., 5% CO2). Compounds of the present invention were added using an INTEGRA VIAFLO 96 (8 point, 3-fold serial dilution, top concentration 1, 10, or 20 μM, 0.4% final DMSO concentration). After a 2h incubation (37° C., 5% CO2) microplates containing cells were washed twice with 150 μL ice-cold PBS, resuspended in 25 μL ice-cold PBS containing 12.5 μL 0.6N HCl, and placed on a microplate shaker for 5 min to lyse the cells. Following lysis, 12.5 μL 1M Trizma base was added to neutralize the suspension, and microplates were returned to the microplate shaker for 1 min. Plates were sealed and stored at −20° C. until further processing. On the day of the assay, microplates were thawed for 45 min at room temperate and 50 μL Lactate Detection Reagent (prepared as specified by manufacturer) was added to each well. Microplates were placed on a plate shaker for 1 min and incubated at room temperature for 1h. Luminescence was measured using a BioTek Cytation 5 Multi-Mode Reader. Curve fitting and calculation of EC50 was performed using GraphPad Prism.

SMILES | IC50 [1] [nM] | EC50 [2] [nM]
Cc1[nH]nc(C(F)(F)F)c1Cc1sc2c(c1C(=O)N1C[C@](C)(O)CO1)c(=O)n(C)c(=O)n2C(C)C [AZD3965] | 50 to 150 | 
O=C(Nc1ccccc1C(=O)O)c1cc(S(=O)(=O)c2ccccc2)ccc1Cl [BAY8002] | 50 to 150 | 
CCNS(=O)(=O)c1cc(Nc2ccn[nH]2)ccc1-c1cnc([C@H]2CC[C@H](NC(=O)OC(C)C)CC2)s1 [Compound 121, isopropyl trans-N-[4-[5-[2-(ethylsulfamoyl)-4-[(1H-pyrazol-5-yl)amino]phenyl]thiazol-2-yl]cyclohexyl]carbamate] |  | < 50

Now from value to compound:

IC50 [1] [nM] | EC50 [2] [nM] | SMILES
50 to 150 | < 50 | CCNS(=O)(=O)c1cc(Nc2ccc(CC)nn2)ccc1-c1cnc([C@H]2CC[C@H](NC(=O)OC(C)C)CC2)s1 [Compound 157, isopropyl trans-N-[4-[5-[4-[(6-ethylpyridazin-3-yl)amino]-2-(ethylsulfamoyl)phenyl]thiazol-2-yl]cyclohexyl]carbamate]
 | 1000 to 5000 | CC(C)OC(=O)Nc1ccc(-c2cnc(C3CCC(NC(=O)OC(C)C)CC3)s2)c(S(=O)(=O)NCCN(C)C)c1 (stereo not shown) [Compound 175]
 | > 5000 | CC(C)OC(=O)NC1CCC(c2ncc(-c3ccc(N(C)C(=O)NCc4ccccc4)cc3S(=O)(=O)NC(C)(C)CO)s2)CC1 (stereo not shown) [Compound 176]

— patent US20250268869A1, “METHODS OF USING A (THIAZOLYL)BENZENESULFONAMIDE DERIVATIVE” (Cyteir Therapeutics, Inc., priority 2022, published 2025)
